From patent publication US10336734B2, “Inhibitors of ACK1/TNK2 tyrosine kinase” (H. LEE MOFFITT CANCER CENTER AND RESEARCH INSTITUTE, INC., priority 2015, dated 2019) come the findings set out here.

In series [1] the test system is LNCaP. As to the kind of experiment: Cell viability/proliferation of PC cell lines, LNCaP. The note with it: 96 hr, read-out: IC50, suppression of proliferation. Type of series: cell-based. The source says: (§1) FIG. 7A through 7F. (R)-9bMS overcome enzalutamide-resistance of CRPCs. […] Data represent mean±s.e.m. (n=3) from one of three independent experiments. […] Data represent mean±s.e.m. (n=3) from one of three independent experiments. […] Data represent mean±standard error of the mean (s.e.m.) (n=3) from one of three independent experiments.*p<0.05. […] Cell cycle analysis of prostate cell lines treated with (R)-9bMS (24 hr).
(§2) To investigate the anti-tumor activity of ACK1 inhibitor, we first analyzed the ability (R)-9bMS to suppress proliferation of PC cell lines.

In series [2] the test system is enzalutamide-resistant C4-2B cell line. As to the kind of experiment: Cell viability and AR expression, enzalutamide-resistant C4-2B cells. It counts as cell-based. The source says: FIG. 7A through 7F. […] Data represent mean±s.e.m. (n=3) from one of three independent experiments. […] Data represent mean±s.e.m. (n=3) from one of three independent experiments. […] Data represent mean±standard error of the mean (s.e.m.) (n=3) from one of three independent experiments.*p<0.05. […] Cell cycle analysis of prostate cell lines treated with (R)-9bMS (24 hr).

For series [3], the system named is C4-2B xenograft tumors. As to the kind of experiment: C4-2B CRPC xenograft in castrated SCID mice. It counts as in vivo. The procedure: FIG. 8A through 8F. (R)-9bMS mitigates CRPC tumor growth. […] Once formed palpable tumors, mice were injected with vehicle (10% DMSO in PBS) or (R)-9bMS (50 mg/kg of body) for 6 days a week for five weeks (n=9 mice for each treatment). Tumor volumes were measured. Data represent mean±s.e.m. […] Data represent mean±standard error of the mean (s.e.m.) (n=3) from one of three independent experiments. **p<0.01.
To investigate the effect of (R)-9bMS on CRPC xenograft tumor growth, C4-2B cells were implanted in castrated SCID mice.

The test system of series [4] is VCaP. Description: Cell viability/proliferation of PC cell lines, VCaP. Type of series: cell-based. The note with it: 96 hr, read-out: IC50, suppression of proliferation.
Description: as §1, §2

The subject of series [5] is pY88-H4 epigenetic marks upstream of AR gene. Description: ChIP-qPCR at AREM1-3 sites in C4-2B cells. Type of series: cell-based. The source says: FIG. 5A through 5J. AR transcription is regulated by epigenetic modification of histone H4 at tyrosine 88 is sensitized byc(R)-9bMS. FIG. 5A through 5D show ChIP with pY88-H4 antibodies, followed by qPCR using primers corresponding to AREM1-3 and control (gene desert) sites of C4-2B cells treated with (R)-9bMS. Data represent mean±s.e.m. (n=3) from one of three independent experiments. **p<0.01. […] Data represent mean±s.e.m. (n=3) from one of three independent experiments. *p<0.05, **p<0.01. FIGS. 5F and 5G show ChIP with pY88-H4 antibodies, followed by qPCR using primers corresponding to AREM2 and AREM1 site of C4-2B cells transfected with ACK1, AR and control siRNA. Data represent mean±s.e.m. (n=3) from one of three independent experiments. *p<0.05, **p<0.01. […] Data represent mean±s.e.m. (n=3) from one of three independent experiments. *p<0.05. FIGS. 5I and 5J show qRT-PCR analysis of AR and PSA in LAPC4 cells transfected with FLAG-tagged H4 or Y88F mutant H4 expressing constructs. Data represent mean±s.e.m. (n=3) from one of three independent experiments.*p<0.05, **p<0.01.
FIG. 6A through 6F. Recruitment of the MLL2/WDR5 complex and deposition of H3K4me3 epigenetic marks upstream of the AR gen can be erased by (R)-9bMS. […]
Background: Real-time PCR tracks product formation cycle by cycle.

Series [6] has as its system LNCaP-caAck xenograft tumors. As to the kind of experiment: LNCaP-caAck xenograft in castrated SCID mice. Type of series: in vivo. The settings on record: 50 mg/kg, 6 days a week for four weeks. How it is done:
FIG. 9. ACK1 inhibitor (R)-9bMS suppresses xenograft tumor growth in castrated mice. Male SCID mice were castrated and injected with LNCaP-caAck cells. Once mice formed palpable tumors, mice were injected with vehicle (10% DMSO in PBS) or (R)-9bMS (50 mg/kg of body) for 6 days a week for four weeks (n=7 mice for each treatment). Tumor volumes were measured.

The test system of series [7] is LAPC4. Description: Cell viability/proliferation of PC cell lines, LAPC4. It counts as cell-based. The note with it: LAPC4, 96 hr; read-out: IC50, suppression of proliferation.
Description: as §1, §2

Series [8] relates to histone H4 Y88-phosphorylation. As to the kind of experiment: Immunoblot of H4 Y88-phosphorylation in ligand-treated PC cells. The settings on record: serum and androgen starved PC cells, ligand activated; 5 μM (DHT 10 nM). It counts as cell-based. The procedure:
FIG. 2A through 2C. ACK1 inhibitor (R)-9bMS suppresses epigenetic modification of histone H4 at tyrosine 88.
To assess endogenous H4-phosphorylation, serum and androgen starved PC cells were treated with ligands to activate ACK1. It led to robust H4 Y88-phosphorylation, suppressed upon (R)-9bMS treatment (FIG. 2A). […] Moreover, H4 Y88-phosphorylation was also detected in human CRPCs using mass spectrometry, which was validated by immunoblotting (FIG. 3A-3C).
(Immunoblotting shows a protein as a band on a membrane.)

Series [9] deals with AR-V7. Description: AR-V7 mRNA (qRT-PCR) and variant protein (immunoblot) in PC cells. It counts as cell-based. The settings on record: VCaP 3.5 μM, 16 hr; VCaP and LAPC4 immunoblot. The source says: FIG. 1A through 1F. Inhibition of ACK1 kinase activity by (R)-9bMS (DZ1-067 mesylate salt) suppresses AR and AR-V7 expression. […] Data represent mean±s.e.m. (n=3) from one of three independent experiments. *p<0.05. FIG. 1B and FIG. 1C show immunoblot analysis of androgen-deprived VCaP and LAPC4 cells treated with (R)-9bMS. […] FIG. 1E and FIG. 1F show qRT-PCR analysis of AR and PSA in PC3 cells transfected with caACK or kdACK constructs. Data represent mean±s.e.m. (n=3) from one of three independent experiments. **p<0.01.
We assessed AR-V7 mRNA levels upon treatment with (R)-9bMS (DZ1-067 mesylate salt).

The test system of series [10] is PC cells. As to the kind of experiment: Cell cycle and apoptosis of PC cells. It counts as cell-based.
Description: as §1, §2

The subject of series [11] is C4-2B. As to the kind of experiment: Cell viability/proliferation of PC cell lines, C4-2B. It counts as cell-based. The settings on record: 96 hr, read-out: IC50, suppression of proliferation.
Description: as §1, §2

Where [12] appears, read: 50 mg/kg, 6 days a week for five weeks.

Consider `CN1CCN(c2ccc(Nc3ncc(Cl)c(NC[C@H]4CCCO4)n3)cc2)CC1` [(R)-9bMS], for which the IC50 is 1800 nM in series [1], 450 nM in series [4], 750 nM in [7] and 400 nM in series [11]. Moreover, the “Sensitivity of enzalutamide-resistant cells” value in series [2] (enzalutamide-resistant C4-2B cells, 96 hr) is listed as “retained sensitivity”. Moreover, the “AR expression in enzalutamide-resistant cells” value in series [2] (immunoblot) is listed as “able to suppress AR expression”. Also, the “Organ histology (H&E)” value in [3] (50 mg/kg) is “histologically normal”. In addition, in series [3] (50 mg/kg), the body weights entry is reported as “no statistical difference”. Besides, the CRPC tumor growth entry in series [3] (setting [12]) was “significant decrease”. The tumor weight result in series [3] (setting [12]) is “significant decrease”. Moreover, the “AR, PSA & TMPRSS2 mRNAs levels in tumors” value in series [3] (qRT-PCR of xenograft tumors) is “significant reduction”. Besides, the “pY88-H4 marks at AREM1-3 sites” value in [5] (ChIP real time PCR) is recorded as “erased”. The “WDR5, MLL2, H3K4me3 methyl marks and RNA Pol II at AREM1-3 sites” value in [5] (absence of androgen) is “significantly reduced”. For the same compound, in series [6], the Xenograft tumor growth entry is recorded as “displayed sensitivity”. The “H4 Y88-phosphorylation” value in series [8] is reported as “suppressed”. For the same compound, in series [9], the “AR-V7 mRNA and variant protein levels” value was “significantly reduced”. The Cell cycle result in series [10] (24 hr) is given as “arrest PC cells in G2 phase”. Moreover, the Apoptosis result in series [10] (C4-2B cells) is given as “inducing apoptosis”.
